Converted amounts (≈) assume the structure as drawn.
Columns and labels:
[1] = test system: Vero; assay: Cytotoxic effect on host cells during growth phase of virus in vero cell cultures using MTT method; type: functional, cell-based; details: Chlorocebus sabaeus
[2] = test system: Vero; assay: In vitro anti-vesicular stomatitis virus activity in vero cell cultures; type: functional; details: Chlorocebus sabaeus, read-out: ED50 (the source's name)
[3] = test system: Vero; assay: Cytotoxic effect on host cells during stationary phase of virus in vero cell cultures using MTT method; type: functional, cell-based; details: Chlorocebus sabaeus
[4] = Ratio of cytotoxicity, IC50(growing) to antiviral activity (ED50) was determined; type: functional

Structure (SMILES)	IC50 [1]	EC50 [2]	IC50 [3]	Selectivity index [4]
C[C@@H](O)C1=C[C@@H](n2cnc3c(N)ncnc32)[C@H](O)[C@@H]1O	2.2 µg/mL (≈ 7.93 µM)	0.24 µg/mL (≈ 0.866 µM)	> 500 µg/mL	9.2
Nc1ncnc2c1ncn2[C@@H]1C=C(CO)[C@@H](O)[C@H]1O [NEOPLANOCIN A]	0.26 µg/mL (≈ 0.988 µM)	0.24 µg/mL (≈ 0.912 µM)	152 µg/mL (≈ 577 µM)	1.1
C[C@H](O)C1=C[C@@H](n2cnc3c(N)nccc32)[C@H](O)[C@@H]1O	> 100 µg/mL	> 100 µg/mL	> 500 µg/mL	–
C[C@@H](O)C1=C[C@@H](n2cnc3c(N)nccc32)[C@H](O)[C@@H]1O	12 µg/mL (≈ 43.4 µM)	1 µg/mL (≈ 3.62 µM)	> 500 µg/mL	12
C[C@H](O)C1=C[C@@H](n2cnc3c(N)ncnc32)[C@H](O)[C@@H]1O	> 100 µg/mL	> 100 µg/mL	> 500 µg/mL	–
Nc1nccc2c1ncn2[C@@H]1C=C(CO)[C@@H](O)[C@H]1O	0.55 µg/mL (≈ 2.1 µM)	0.24 µg/mL (≈ 0.915 µM)	> 500 µg/mL	2.3

— ChEMBL document CHEMBL1127251, “New neplanocin analogues. III. 6R-configuration is essential for the antiviral activity of 6-C-methyl-3-deazaneplanocin a's” (Bioorg Med Chem Lett, 1994)
